Assay results from PMC7961786, “Magic Peptide: Unique Properties of the LRR11 Peptide in the Activation of Leukotriene Synthesis in Human Neutrophils” (International Journal of Molecular Sciences, 2021).
“Also recorded” adds a separate entry of the source.

How the values were obtained:
NeutrAvidin = assay: TSM acoustic biosensor, immobilization of 5′-biotinylated C-CpG on NeutrAvidin surface; assay type: binding; details: Sauerbrey's equation, 1 μM 5′-biotinylated ODN on NeutrAvidin
Excerpt: Using Sauerbrey’s Equation (2), (2) Δf=−2f02Δm/Aμqρq where f0 is the fundamental resonance frequency (in our case 8 MHz), Δm is the change in mass (in grams) of the adsorbed layer on the crystal surface, A is the effective crystal area (in our case 0.2 cm^2), μq = 2.947 × 10^11 g × cm^−1s^−2 is the shear modulus of elasticity, and ρq = 2.648 g × cm^−3 is the crystal density, surface concentrations of NeutrAvidin, ODN and LRR11 peptide were estimated based on changes of resonance frequency (Figure 4). According to Equation (2), the surface density of molecules, σ (in molecules/cm^2), can be calculated as σ = ΔmNA/(A × Mw), where NA is Avogadro’s number (=6.023 × 10^23 mol^−1), and Mw represents the molecular weight of the corresponding compound (NeutrAvidin: 65 kDa, 5′-biotinylated C-CpG: 7115.4 Da, and LRR11: 3421 Da). Based on this approach, we obtained the following surface concentration values: 1.94 × 10^13 cm^−2 for NeutrAvidin, 3.37 × 10^13 cm^−2 for C-CpG and 2.4 × 10^13 cm^−2 for LRR11. The NeutrAvidin has four binding sites, two of which are available for biotinylated ODN binding. This is due to the fact that the other two sites are inaccessible due to NeutrAvidin chemisorption on the TSM surface. Thus, the number of available binding sites for the ODN is 3.88 × 10^13 cm^−2. […] Therefore, the surface of the TSM transducer is practically completely saturated by C-CpG. […]

[1] = test system: 5′-biotinylated G-rich ODN; assay: TSM acoustic biosensor, peptide binding to immobilized G-rich ODN; details: LRR11 1 to 100 nM, Hanks buffer
Excerpt: To characterize the interaction of the studied synthetic ODNs with the LRR11 peptide, we applied the thickness shear mode (TSM) acoustic biosensor method, which is based on the investigation of ultrasonic waves in piezoelectric materials such as AT-cut quartz. This approach involved immobilizing a 5′-biotinylated ODN on the surface of TSM transducer covered by NeutrAvidin and then adding the LRR11 peptide. An unrelated peptide (URP) with a random primary structure ([…]) was used as a negative control. The measurement procedure was divided into several steps, in which each immobilization stage was followed by washing with an appropriate buffer solution; when peptide solutions at different concentrations (from 1 to 100 nM) were added to the surface-modified TSM transducer, a wash with Hanks buffer was used before increasing the peptide concentration.
Eight MHz AT-cut piezoelectric quartz crystal transducer was obtained from CH Instruments, Austin, TX, USA. The transducer was covered on both sides with thin layers of gold that served as electrodes (working area 0.2 cm^2). Prior ODNs immobilization, the crystal was carefully cleaned with basic Piranha solution (29% NH3, 30% H2O and H2O2 with volumetric 1:5:1 ratio, respectively) for 25 min. After the thorough cleaning, the crystal was positioned between two silicon O-rings in a flow-through cell. […]

[2] = test system: human neutrophils (PMNLs); assay: Binding and uptake of FAM-labeled ODNs by neutrophils (flow cytometry); assay type: cell-based; details: 1 µM LRR11, 0.15 µM FPS-ZM1; n = 3; Figure 7
Protocol: Figure 6 The LRR11 peptide affects the binding and uptake of ODNs by neutrophilic granulocytes. PMNLs (1 × 10^6/mL) in HBSS/HEPES were incubated for 20 min at 37 °C in 5% CO2 with 1 µM FAM-labeled ODN, supplemented or not with 1 µM LRR11 peptide. Both the total ODN accumulation (red) and its intracellular constituent (black) were analyzed by flow cytometry. Surface fluorescence was quenched by trypan blue (TB) solution. Values represent the means ± SEM of FAM fluorescence intensities (RFU, relative fluorescence units) (n = 8). ** p < 0.01; *** p < 0.005, **** p < 0.001 for specified data pairs, as indicated by two-way ANOVA followed by Tukey’s multiple comparison test. Mean fluorescence intensities of unstained PMNLs were 62 ± 12 and 39 ± 5.6 without or after TB quenching, respectively.
Figure 7 RAGE antagonist effect on oligonucleotide penetration into neutrophil cells. […] Both total oligonucleotide accumulation (A) and its intracellular constituent (B) were analyzed by flow cytometry. The surface fluorescence was quenched by trypan blue solution. Values represent the means ± SEM of FAM fluorescence intensities (RFU) (n = 3). * p < 0.05; […]; *** p < 0.005 for the pair of data specified, as indicated by two-way ANOVA followed by Tukey’s multiple comparison test. Fluorescence intensities of unstained controls were 62 ± 14 and 49 ± 6 without, or after TB quenching, respectively. […]

Row | Substance | surface concentration of C-CpG (NeutrAvidin) | interaction with G-rich ODN [1] | effect of LRR11 on FPS-ZM1 inhibition of ODN internalization [2]
1 | 5′-tcgtcgttttcggcgcgcgccg-3′ (DNA TCGTCGTTTTCGGCGCGCGCCG; chemistry not fully specified) [C-CpG] | 3.37 × 10^13 cm^−2 |  | 
2 | QLRKLNLSFNYQKRVSFAHLSLAPSFGSLV [LRR11, 30 amino acid peptide from leucine-rich repeat of TLR9] |  | does not interact with the LRR11 peptide at any concentration; also recorded: no significant change of resonant frequency was observed | overcomes the inhibitory effect of FPS-ZM1; also recorded: the maximum ODN delivery into cells is observed in the presence of LRR11 and a RAGE antagonist
